Assay results taken from article PMC5877736, “Functional Characteristics, Electrophysiological and Antennal Immunolocalization of General Odorant-Binding Protein 2 in Tea Geometrid, Ectropis obliqua” (International Journal of Molecular Sciences, 2018).
Like-named read-outs stand apart in the source and are kept apart here.

Columns and labels:
[1] = biological target: EoblGOBP2 (Ectropis obliqua, UniProt C0JAP5); assay: Competitive fluorescence ligand-binding assay with 1-NPN as fluorescent probe; conditions: for binding to EoblGOBP2 (in words): competitive binding with 1-NPN
Chain of EoblGOBP2 (C0JAP5 entry or part of it): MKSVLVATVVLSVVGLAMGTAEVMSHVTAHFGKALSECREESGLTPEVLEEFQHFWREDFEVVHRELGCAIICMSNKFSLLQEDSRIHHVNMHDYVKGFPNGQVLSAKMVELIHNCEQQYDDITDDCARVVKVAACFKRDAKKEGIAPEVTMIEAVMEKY
Experimental: For EoblGOBP2 binding assays, 1-NPN was used as a competitive fluorescent reporter. When 1-NPN was added dropwise to the protein solution, the maximum emission peak at 340 nm was shifted to about 420 nm. The dissociation constant of 1-NPN to EoblGOBP2 was approximately 2.31 μM calculated using the Scatchard equation (Figure 5A). Using 1-NPN as a fluorescent probe, the binding affinities of EoblGOBP2 to 19 ligands were measured using competitive binding assays. IC50 values and dissociation constants (KD) were then calculated (Table 1).
Ligand-binding assays were performed on a RF-5031pc Fluorescence Spectrophotometer (Shimadzu, Tokyo, Japan). The excitation and emission slits were set to 10 nm. Fluorescence spectra were recorded from 300 to 550 nm with an excitation wavelength of 282 nm. The recombinant EoblGOBP2 protein solutions (1.5 μM), served in 1 cm light path quartz cuvette, were titrated with 1 mM 1-NPN solution in methanol. The fluorescence intensity at the maximum emission wavelength of about 328 nm was linearized using the Scatchard equation [46], then the dissociation constants for 1-NPN (K1-NPN) was calculated.
Nineteen fresh tea leaf volatiles were used as test ligands. For the binding affinities of the ligands to EoblGOBP2, a mixture of 1-NPN and EoblGOBP2 protein was titrated with 1 μM ligands dissolved in methanol. The IC50 values were obtained by data linearization, and the dissociation constants (KD) were calculated using the following equation: KD = [IC50]/(1 + [1-NPN]/K1-NPN), where [1-NPN] is the free concentration of 1-NPN, and K1-NPN is the dissociation constant of the protein/1-NPN complex.

[2] = test system: E. obliqua antennae; assay: Electroantennogram (EAG) of male and female antennae; set-up: species or system Ectropis obliqua; conditions: volatiles at 10 mg/mL (Figure 7)
Experimental: To characterize the relationship between ligand-binding and E. obliqua olfactory activity, seven ligands with strong EoblGOBP2 binding affinities were selected for EAG measurements.
The antennal olfactory responses of E. obliqua to seven candidate tea volatiles were tested by the EAG technique. Prior to EAG experiments, all test ligands were dissolved into liquid paraffin at a concentration of 0.1 (v/v). The fresh […] antenna were excised from its base, and immediately attached onto the fork electrode holder using non-drying clay (Spectra 360 Electrode Gel, Parker Laboratories Inc., Orange, NJ, USA). […] All antennae should be tested in three replicates.
The odor stimulus was performed in the pulse while recording the electroantennogram of antennae. (E)-3-hexenol and liquid paraffin were chosen as the positive and negative control CK, respectively. All antennae were stimulated with five samples, and each tested sample was repeated six times. EAG signals were recorded and analyzed with EAG-Pro software (Syntech, Hilversum, NT). The relative values of EAG response were calculated using the following formula: Sr = (Sc − CKm)/(Rm − CKm)·100% [52]. Where Sr is the relative value of the EAG response, Sc is the EAG response for a certain odor, CKm is the mean of the EAG responses of liquid paraffin before and after the test odor stimulus, and Rm is the mean of the EAG response of (Z)-3-hexenol.

[3] = class symbol, protein 1.5 μM, read-out: KD Dissociation Constant
[4] = calculated from IC50: KD = [IC50]/(1 + [1-NPN]/K1-NPN), protein 1.5 μM, read-out: KD Dissociation Constant
[5] = ligand concentration halving 1-NPN fluorescence, protein 1.5 μM

IC50 ([1]; class symbol, protein 1.5 μM) [µM] | Kd [1, 3] [µM] | SMILES | Kd [1, 4] [µM] | IC50 [1, 5] [µM] | also measured
> 50 | > 11.2 | C1COCO1 [1,3-dioxolane] |  |  | binding to EoblGOBP2 (in words) [1]: could not bind
> 50 | > 11.2 | C=CC(O)CC (stereo not drawn) [1-penten-3-ol] |  |  | 
> 50 | > 11.2 | CC/C=C/C=O [(E)-2-pentenal] |  |  | 
> 50 | > 11.2 | CCCCCCCCCCCCCCCC(=O)O [Hexadecanoic acid] |  |  | binding to EoblGOBP2 (in words) [1]: could not bind
> 50 | > 11.2 | CC(C)=CCC/C(C)=C\CO [Nerol] |  |  | 
> 50 | > 11.2 | CCCCCCO [n-hexanol] |  |  | 
> 50 | > 11.2 | CCCCCO [n-pentanol] |  |  | 

Second part, the compound before the results:

SMILES | IC50 ([1]; class symbol, protein 1.5 μM) [µM] | Kd [1, 3] [µM] | Kd [1, 4] [µM] | IC50 [1, 5] [µM] | also measured
c1ccc(Nc2cccc3ccccc23)cc1 [1-NPN, N-phenyl-1-naphthylamine, reference compound] |  |  |  |  | Kd ([1]; direct titration, Scatchard equation, read-out: dissociation constant of 1-NPN to EoblGOBP2): ~2.31 µM
CCCCCCC/C=C/C=O [(E)-2-decenal] |  |  | 20.7 | 92.4 | EAG response, male versus female antennae [2]: stronger in male antennae than in female antennae
CCC/C=C/C=O [(E)-2-hexenal] |  |  | 32.2 | 143 | EAG response, male versus female antennae [2]: stronger in male antennae than in female antennae
CC/C=C\CCO [(Z)-3-hexenol] | > 50 | > 11.2 |  |  | 
CC(=O)c1ccccc1 [Acetophenone] |  |  | 13 | 57.9 | EAG response, male versus female antennae [2]: stronger in male antennae than in female antennae
O=Cc1ccccc1 [Benzaldehyde] |  |  | 44.2 | 197 | EAG response, male versus female antennae [2]: stronger in male antennae than in female antennae
OCc1ccccc1 [Benzyl alcohol] | > 50 | > 11.2 |  |  | 
CCCCOC(=O)c1ccccc1C(=O)OCCCC [Dibutyl phthalate] |  |  | 4.35 | 19.4 | EAG response in male and female antennae (in words) [2]: weak responses
C=CC(C)(O)CCC=C(C)C (stereo not drawn) [Linalool] | > 50 | > 11.2 |  |  | 
COC(=O)c1ccccc1O [Methyl salicylate] |  |  | 43.5 | 194 | EAG response, male versus female antennae [2]: stronger in male antennae than in female antennae
CCOP(=O)(OCC)OCC [Triethyl phosphate] | > 50 | > 11.2 |  |  | 
CC1=CC[C@@H](C(C)(C)O)CC1 [α-terpineol] | > 50 | > 11.2 |  |  | 
CC(=O)/C=C/C1=C(C)CCCC1(C)C [β-ionone] |  |  | 12.6 | 56.1 | EAG response in male and female antennae (in words) [2]: weak responses
